In patent publication US8425997B2, “Cobalt bearing polymeric compositions” (Umicore, priority 2008, dated 2013):

Assay: Aqueous solubility (leaching) of Co, OECD-105 flask method
Type: physicochemical
Experimental: Experiments are performed to determine the aqueous solubility of the Co in the invented polymers. These tests are relevant as indicators for the bioavailability of Co.
[…] The leaching tests are conducted according to the OECD-105 standard flask method, as described in the OECD Guideline for the Testing of Chemicals, adopted on 27 Jul. 1995, and in the Official Journal of the European Communities L 383 A, 54-62 (1992).
The solubility of 3 typical polymers according to the invention is compared to that of 3 commercial products.

Solubility of Co in 0.9% NaCl solution, Co (solvent: 0.9% NaCl): 1400 µg/mL
Solubility of Co in water, Co (solvent: water): 1600 µg/mL
Substance: Co-acetylacetonate
